Legend:
[1] = tested on: HCC-2998; details: published NCI60 panel data, ref 1 (Coibamide A), 2 (Apratoxin A), 3 (Ipomoeassin F); cited from earlier work
[2] = tested on: HT29; details: published NCI60 panel data, ref 1 (Coibamide A), 2 (Apratoxin A), 3 (Ipomoeassin F); cited from earlier work
[3] = tested on: SK-MEL-5; details: published NCI60 panel data, ref 1 (Coibamide A), 2 (Apratoxin A), 3 (Ipomoeassin F); cited from earlier work
[4] = tested on: MCF7; details: published NCI60 panel data, ref 1 (Coibamide A), 2 (Apratoxin A), 3 (Ipomoeassin F); cited from earlier work
[5] = tested on: T-47D; details: published NCI60 panel data, ref 1 (Coibamide A), 2 (Apratoxin A), 3 (Ipomoeassin F); cited from earlier work
[6] = tested on: NCI-H460; details: published NCI60 panel data, ref 1 (Coibamide A), 2 (Apratoxin A), 3 (Ipomoeassin F); cited from earlier work
[7] = tested on: SF-539; details: published NCI60 panel data, ref 1 (Coibamide A), 2 (Apratoxin A), 3 (Ipomoeassin F); cited from earlier work
[8] = tested on: SF-295; details: published NCI60 panel data, ref 1 (Coibamide A), 2 (Apratoxin A), 3 (Ipomoeassin F); cited from earlier work
[9] = tested on: SF-268; details: published NCI60 panel data, ref 1 (Coibamide A), 2 (Apratoxin A), 3 (Ipomoeassin F); cited from earlier work
[10] = tested on: HL-60 (TB); details: published NCI60 panel data; cited from earlier work
[11] = tested on: COLO 205; details: published NCI60 panel data, ref 1 (Coibamide A), 2 (Apratoxin A), 3 (Ipomoeassin F); cited from earlier work
[12] = tested on: HOP-92; details: published NCI60 panel data, ref 1 (Coibamide A), 2 (Apratoxin A), 3 (Ipomoeassin F); cited from earlier work
[13] = tested on: SK-OV-3; details: published NCI60 panel data, ref 1 (Coibamide A), 2 (Apratoxin A), 3 (Ipomoeassin F); cited from earlier work
[14] = tested on: LOX IMVI; details: published NCI60 panel data, ref 1 (Coibamide A), 2 (Apratoxin A), 3 (Ipomoeassin F); cited from earlier work
[15] = tested on: M14; details: published NCI60 panel data, ref 1 (Coibamide A), 2 (Apratoxin A), 3 (Ipomoeassin F); cited from earlier work
[16] = tested on: HCT-116; details: published NCI60 panel data, ref 1 (Coibamide A), 2 (Apratoxin A), 3 (Ipomoeassin F); cited from earlier work
[17] = tested on: SR; details: published NCI60 panel data, ref 1 (Coibamide A), 2 (Apratoxin A), 3 (Ipomoeassin F); cited from earlier work
[18] = tested on: MDA-MB-231/ATCC; details: published NCI60 panel data, ref 1 (Coibamide A), 2 (Apratoxin A), 3 (Ipomoeassin F); cited from earlier work
[19] = tested on: HS 578T; details: published NCI60 panel data, ref 1 (Coibamide A), 2 (Apratoxin A), 3 (Ipomoeassin F); cited from earlier work
[20] = tested on: RXF 393; details: published NCI60 panel data, ref 1 (Coibamide A), 2 (Apratoxin A), 3 (Ipomoeassin F); cited from earlier work
[21] = tested on: RPMI-8226; details: published NCI60 panel data, ref 1 (Coibamide A), 2 (Apratoxin A), 3 (Ipomoeassin F); cited from earlier work
[22] = tested on: IGROV1; details: published NCI60 panel data, ref 1 (Coibamide A), 2 (Apratoxin A), 3 (Ipomoeassin F); cited from earlier work
[23] = tested on: U251; details: published NCI60 panel data, ref 1 (Coibamide A), 2 (Apratoxin A), 3 (Ipomoeassin F); cited from earlier work
[24] = tested on: K-562; details: published NCI60 panel data, ref 1 (Coibamide A), 2 (Apratoxin A), 3 (Ipomoeassin F); cited from earlier work
[25] = tested on: SNB-75; details: published NCI60 panel data, ref 1 (Coibamide A), 2 (Apratoxin A), 3 (Ipomoeassin F); cited from earlier work
[26] = tested on: SW-620; details: published NCI60 panel data, ref 1 (Coibamide A), 2 (Apratoxin A), 3 (Ipomoeassin F); cited from earlier work
[27] = tested on: CCRF-CEM; details: published NCI60 panel data, ref 1 (Coibamide A), 2 (Apratoxin A), 3 (Ipomoeassin F); cited from earlier work
[28] = tested on: MDA-MB-435; details: published NCI60 panel data, ref 1 (Coibamide A), 2 (Apratoxin A), 3 (Ipomoeassin F); cited from earlier work
[29] = tested on: SNB-19; details: published NCI60 panel data, ref 1 (Coibamide A), 2 (Apratoxin A), 3 (Ipomoeassin F); cited from earlier work
[30] = tested on: HOP-62; details: published NCI60 panel data, ref 1 (Coibamide A), 2 (Apratoxin A), 3 (Ipomoeassin F); cited from earlier work
[31] = tested on: PC-3; details: published NCI60 panel data, ref 1 (Coibamide A), 2 (Apratoxin A), 3 (Ipomoeassin F); cited from earlier work
[32] = tested on: SK-MEL-28; details: published NCI60 panel data, ref 1 (Coibamide A), 2 (Apratoxin A), 3 (Ipomoeassin F); cited from earlier work
[33] = tested on: NCI-H226; details: published NCI60 panel data, ref 1 (Coibamide A), 2 (Apratoxin A), 3 (Ipomoeassin F); cited from earlier work
[34] = tested on: UO-31; details: published NCI60 panel data, ref 1 (Coibamide A), 2 (Apratoxin A), 3 (Ipomoeassin F); cited from earlier work
[35] = tested on: OVCAR8; details: published NCI60 panel data, ref 1 (Coibamide A), 2 (Apratoxin A), 3 (Ipomoeassin F); cited from earlier work
[36] = tested on: 786-0; details: published NCI60 panel data, ref 1 (Coibamide A), 2 (Apratoxin A), 3 (Ipomoeassin F); cited from earlier work
[37] = tested on: A549/ATCC; details: published NCI60 panel data, ref 1 (Coibamide A), 2 (Apratoxin A), 3 (Ipomoeassin F); cited from earlier work
[38] = tested on: A498; details: published NCI60 panel data, ref 1 (Coibamide A), 2 (Apratoxin A), 3 (Ipomoeassin F); cited from earlier work
[39] = tested on: NCI-H522; details: published NCI60 panel data, ref 1 (Coibamide A), 2 (Apratoxin A), 3 (Ipomoeassin F); cited from earlier work
[40] = tested on: DU-145; details: published NCI60 panel data, ref 1 (Coibamide A), 2 (Apratoxin A), 3 (Ipomoeassin F); cited from earlier work
[41] = tested on: UACC-257; details: published NCI60 panel data, ref 1 (Coibamide A), 2 (Apratoxin A), 3 (Ipomoeassin F); cited from earlier work
[42] = tested on: UACC-62; details: published NCI60 panel data, ref 1 (Coibamide A), 2 (Apratoxin A), 3 (Ipomoeassin F); cited from earlier work
[43] = tested on: MALME-3M; details: published NCI60 panel data, ref 1 (Coibamide A), 2 (Apratoxin A), 3 (Ipomoeassin F); cited from earlier work
[44] = tested on: KM12; details: published NCI60 panel data, ref 1 (Coibamide A), 2 (Apratoxin A), 3 (Ipomoeassin F); cited from earlier work
[45] = tested on: NCI-H322M; details: published NCI60 panel data, ref 1 (Coibamide A), 2 (Apratoxin A), 3 (Ipomoeassin F); cited from earlier work
[46] = tested on: SN12C; details: published NCI60 panel data, ref 1 (Coibamide A), 2 (Apratoxin A), 3 (Ipomoeassin F); cited from earlier work
[47] = tested on: OVCAR5; details: published NCI60 panel data, ref 1 (Coibamide A), 2 (Apratoxin A), 3 (Ipomoeassin F); cited from earlier work
[48] = tested on: EKVX; details: published NCI60 panel data, ref 1 (Coibamide A), 2 (Apratoxin A), 3 (Ipomoeassin F); cited from earlier work
[49] = tested on: OVCAR3; details: published NCI60 panel data, ref 1 (Coibamide A), 2 (Apratoxin A), 3 (Ipomoeassin F); cited from earlier work
[50] = tested on: HCT-15; details: published NCI60 panel data, ref 1 (Coibamide A), 2 (Apratoxin A), 3 (Ipomoeassin F); cited from earlier work
[51] = tested on: MOLT-4; details: published NCI60 panel data, ref 1 (Coibamide A), 2 (Apratoxin A), 3 (Ipomoeassin F); cited from earlier work
[52] = tested on: SK-MEL-2; details: published NCI60 panel data, ref 1 (Coibamide A), 2 (Apratoxin A), 3 (Ipomoeassin F); cited from earlier work
[53] = tested on: NCI/ADR-RES; details: published NCI60 panel data, ref 1 (Coibamide A), 2 (Apratoxin A), 3 (Ipomoeassin F); cited from earlier work
[54] = tested on: NCI-H23; details: published NCI60 panel data, ref 1 (Coibamide A), 2 (Apratoxin A), 3 (Ipomoeassin F); cited from earlier work
[55] = tested on: TK-10; details: published NCI60 panel data, ref 1 (Coibamide A), 2 (Apratoxin A), 3 (Ipomoeassin F); cited from earlier work
[56] = tested on: BT-549; details: published NCI60 panel data, ref 1 (Coibamide A), 2 (Apratoxin A), 3 (Ipomoeassin F); cited from earlier work
[57] = tested on: OVCAR4; details: published NCI60 panel data, ref 1 (Coibamide A), 2 (Apratoxin A), 3 (Ipomoeassin F); cited from earlier work
[58] = tested on: Sec61α; test: Photoaffinity labeling competition in sheep rough microsomes; assay type: binding; details: SRM with 100 nM Sec61, 30 min with competitor, then 100 nM photo-CbA, UV 10 min, TAMRA in-gel fluorescence
Procedure: Figure 2 Photo-cross-linking of photo-CbA to Sec61α and CbA stabilization of Sec61 in cells. Photocotransin (CT7) or photocoibamide (pCbA) cross-linking to cells or sheep rough microsomes (SRM). Samples were photolyzed and the covalent adduct detected by click-chemistry to TAMRA-azide reporter and in-gel fluorescence scanning and Western blotting. (A) A431 cell lines were first incubated with CbA or carrier, followed by incubation with photo-CbA, photolysis, and click chemistry. Following SDS PAGE, lysates were queried for in gel fluorescence and subsequently transferred for anti-Sec61α and anti-FLAG Western Blot. Arrows indicate Sec61 (with or without a 10 kDa insert), star indicates nonspecific WB signal, triangle indicates free TAMRA dye within the gel. (B) As in A but in SRMs. […] Heat-treated cell suspensions were snap frozen, lysates cleared by centrifugation, and the soluble fraction analyzed by SDS-PAGE and Western blotting. […] (F) Quantification of immunoblot data shown in E. Sec61α band intensity was normalized to tubulin, and data points were fitted using nonlinear regression analysis.
The photoaffinity labeling and click chemistry with microsomes were done as previously described.[17] […] The labeled proteins were analyzed by SDS-PAGE and in-gel fluorescence. […]

Question: For `C/C=C(\C)C(=O)O[C@@H]1[C@@H](O)[C@@H]2O[C@H]3[C@H](O[C@@H](CCCCC)CCCCCCC(=O)CCC(=O)OC[C@@H](O2)[C@H]1OC(=O)/C=C/c1ccccc1)O[C@H](C)[C@H](OC(C)=O)[C@@H]3O` [IpoF, ipomoeassin F], which GI50 [1] is on record?
Answer: 1180 nM

Question: What about the GI50 [2] of the same molecule?
Answer: 10 nM

Question: And the GI50 [3]?
Answer: 10 nM

Question: And the GI50 [4]?
Answer: 10 nM

Question: What about the GI50 [5] of the same molecule?
Answer: 10 nM

Question: What about the GI50 [6] of the same molecule?
Answer: 10 nM

Question: And the GI50 [7]?
Answer: 10 nM

Question: And the GI50 [8]?
Answer: 10 nM

Question: And the GI50 [9]?
Answer: 115 nM

Question: And the GI50 [10]?
Answer: 49 nM

Question: And the GI50 [11]?
Answer: 10 nM

Question: And the GI50 [12]?
Answer: 10 nM

Question: And the GI50 [13]?
Answer: 38.4 nM

Question: What about the GI50 [14] of the same molecule?
Answer: 10 nM

Question: What about the GI50 [15] of the same molecule?
Answer: 10 nM

Question: What about the GI50 [16] of the same molecule?
Answer: 10 nM

Question: And the GI50 [17]?
Answer: 14.4 nM

Question: And the GI50 [18]?
Answer: 10 nM

Question: And the GI50 [19]?
Answer: 10 nM

Question: And the GI50 [20]?
Answer: 10 nM

Question: What about the GI50 [21] of the same molecule?
Answer: 10 nM

Question: And the GI50 [22]?
Answer: 26.7 nM

Question: And the GI50 [23]?
Answer: 10 nM

Question: What about the GI50 [24] of the same molecule?
Answer: 10 nM

Question: And the GI50 [25]?
Answer: 10 nM

Question: And the GI50 [26]?
Answer: 10 nM

Question: What about the GI50 [27] of the same molecule?
Answer: 741 nM

Question: And the GI50 [28]?
Answer: 10 nM

Question: What about the GI50 [29] of the same molecule?
Answer: 129 nM

Question: And the GI50 [30]?
Answer: 10 nM

Question: What about the GI50 [31] of the same molecule?
Answer: 10 nM

Question: What about the GI50 [32] of the same molecule?
Answer: 17.5 nM

Question: And the GI50 [33]?
Answer: 276 nM

Question: What about the GI50 [34] of the same molecule?
Answer: 10 nM

Question: And the GI50 [35]?
Answer: 117 nM

Question: What about the GI50 [36] of the same molecule?
Answer: 30.1 nM

Question: And the GI50 [37]?
Answer: 10 nM

Question: What about the GI50 [38] of the same molecule?
Answer: 315 nM

Question: What about the GI50 [39] of the same molecule?
Answer: 27.9 nM

Question: What about the GI50 [40] of the same molecule?
Answer: 31.9 nM

Question: And the GI50 [41]?
Answer: 11.9 nM

Question: And the GI50 [42]?
Answer: 15.3 nM

Question: What about the GI50 [43] of the same molecule?
Answer: 57.8 nM

Question: What about the GI50 [44] of the same molecule?
Answer: 10 nM

Question: And the GI50 [45]?
Answer: 391 nM

Question: What about the GI50 [46] of the same molecule?
Answer: 10 nM

Question: What about the GI50 [47] of the same molecule?
Answer: 1230 nM

Question: And the GI50 [48]?
Answer: 10 nM

Question: What about the GI50 [49] of the same molecule?
Answer: 28.3 nM

Question: What about the GI50 [50] of the same molecule?
Answer: 29.8 nM

Question: And the GI50 [51]?
Answer: 3420 nM

Question: And the GI50 [52]?
Answer: 445 nM

Question: What about the GI50 [53] of the same molecule?
Answer: 297 nM

Question: What about the GI50 [54] of the same molecule?
Answer: 213 nM

Question: And the GI50 [55]?
Answer: 15.2 nM

Question: And the GI50 [56]?
Answer: 17.9 nM

Question: What about the GI50 [57] of the same molecule?
Answer: 1580 nM

Question: With `CC(=C\C=C\C(C)=C\[C@H](O)[C@@H](O)C[C@H](C)O)/C=C(C)/C=C/C(=O)O[C@H]1CCCC(=O)O[C@@H]([C@@H](C)C/C(C)=C/[C@@H](C)[C@H](O)C[C@@H](C)O)C/C=C(\C)C[C@@H]1C` [mycolactone] as the molecule, how does the “competition of photo-CbA cross-linking to Sec61α” value [58] read?
Answer: prevented photo-CbA cross-linking in a concentration-dependent manner

Source: PMC7497630, “Coibamide A Targets Sec61 to Prevent Biogenesis of Secretory and Membrane Proteins” (ACS Chemical Biology, 2020)
